Reference: US20150183822A1, “ANGIOTENSIN-CONVERTING-ENZYME INHIBITING DIPEPTIDE” (YAMAKI Co., Ltd., priority 2012, published 2015)
Read-outs that look alike come from different tables or passages of the source. Values belong to the compound of their own block, whether it stands above or below them. Where a SMILES comes first, the peptide text is derived from it.

Molecular target: T1, angiotensin converting enzyme (ACE) (Oryctolagus cuniculus, UniProt P12822)
T1 construct: resulting supernatant was purified with hydroxyapatite to obtain 1 unit/mg protein of angiotensin converting enzyme liquid; tissue Sigma Co., Ltd. (alternative source); host or cells: rabbit lung (acetone powder extract purified with hydroxyapatite)
T1 sequence (P12822 34-1310): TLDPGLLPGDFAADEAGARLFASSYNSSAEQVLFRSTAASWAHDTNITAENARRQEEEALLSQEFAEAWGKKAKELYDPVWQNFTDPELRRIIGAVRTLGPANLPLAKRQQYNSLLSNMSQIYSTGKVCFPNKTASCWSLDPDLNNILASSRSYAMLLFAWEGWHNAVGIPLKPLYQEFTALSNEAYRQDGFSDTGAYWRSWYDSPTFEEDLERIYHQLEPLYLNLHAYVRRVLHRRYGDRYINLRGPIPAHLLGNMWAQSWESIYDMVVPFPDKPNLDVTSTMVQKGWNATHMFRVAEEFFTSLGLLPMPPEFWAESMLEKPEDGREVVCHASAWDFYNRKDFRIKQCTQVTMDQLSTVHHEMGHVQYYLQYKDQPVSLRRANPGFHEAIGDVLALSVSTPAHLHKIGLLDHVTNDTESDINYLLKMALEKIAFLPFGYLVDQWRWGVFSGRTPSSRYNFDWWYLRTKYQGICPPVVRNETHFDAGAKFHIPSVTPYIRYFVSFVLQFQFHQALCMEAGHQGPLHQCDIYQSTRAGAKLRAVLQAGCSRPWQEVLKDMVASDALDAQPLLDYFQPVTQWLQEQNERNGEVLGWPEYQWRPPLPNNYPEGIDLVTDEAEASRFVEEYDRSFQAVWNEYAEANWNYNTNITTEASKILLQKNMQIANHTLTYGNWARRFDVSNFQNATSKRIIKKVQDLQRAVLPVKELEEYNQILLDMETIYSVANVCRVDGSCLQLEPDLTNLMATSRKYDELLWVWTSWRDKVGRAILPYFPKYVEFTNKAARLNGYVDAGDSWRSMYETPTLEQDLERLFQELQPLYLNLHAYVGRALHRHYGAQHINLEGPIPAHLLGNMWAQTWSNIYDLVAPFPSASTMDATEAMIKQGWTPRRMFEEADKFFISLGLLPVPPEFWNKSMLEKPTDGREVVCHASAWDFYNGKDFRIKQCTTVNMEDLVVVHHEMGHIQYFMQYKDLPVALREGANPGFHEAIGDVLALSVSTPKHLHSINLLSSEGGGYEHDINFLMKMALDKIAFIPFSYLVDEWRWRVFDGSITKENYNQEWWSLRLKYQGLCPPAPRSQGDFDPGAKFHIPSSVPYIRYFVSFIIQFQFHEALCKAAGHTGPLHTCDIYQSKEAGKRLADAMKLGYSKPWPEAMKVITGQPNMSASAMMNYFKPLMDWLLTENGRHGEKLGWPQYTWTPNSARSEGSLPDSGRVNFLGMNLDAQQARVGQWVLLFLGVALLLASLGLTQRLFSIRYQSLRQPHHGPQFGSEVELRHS
Assay: ACE inhibitory activity (Test Example 1, Cheung and Cushman's method, hippuryl histidyl leucine substrate)
Format: biochemical, rabbit
Settings: for The contribution rate in KATSUOBUSHI peptide: contribution of each dipeptide in KATSUOBUSHI peptide; for ACE inhibitory activity value, comparison in words: comparison among dipeptides of Table 30
Description: ACE inhibitory activity was measured as below.
5 g of rabbit lung acetone powder was dissolved in 50 mL of 0.1M sodium borate buffer (pH8.3), centrifuged under the condition of 40000G and for 40 minutes and resulting supernatant was purified with hydroxyapatite to obtain 1 unit/mg protein of angiotensin converting enzyme liquid. Purified ACE derived from rabbit lung (Sigma Co., Ltd., 0.25 unit), alternatively, was used.
0.030 mL of the various concentrations of the dipeptide composition solutions were taken into test tubes, respectively, and then, 0.1 mL of the angiotensin converting enzyme liquid as above was added into the test tubes to react with the composition at 37° C. for 5 minutes. Subsequently, 0.25 mL of hippuryl histidyl leucine (PEPTIDE Lab., Bz-Gly-His-Leu.H2O, the final concentration of 5 mM, including 300 mM of NaCl) as a substrate was added to the test tubes to react with the enzyme at 37° C. for 30 minutes. 0.25 mL of 1N hydrochloric acid, then, was added to the test tube to terminate the reaction, 1.5 mL of ethyl acetate was added to the test tube and stirred with the vortex mixer for 20 seconds, followed by centrifuging (3000 rotations, for 5 minutes) and 1 mL of ethyl acetate layer was isolated.
The inhibitory rate was calculated according to the following formula.
The inhibitory=[1−(A−a)/(B−b)]×100

[1] = isolated peptides, Table 11, read-out: ACE inhibitory activity (IC50: μM)
[2] = Table 30, dipeptides of the invention and other dipeptides, read-out: ACE inhibitory value IC50
[3] = isolated peptides, Table 10, read-out: ACE inhibitory activity (IC50: μM)
[4] = isolated peptides, Table 9, read-out: ACE inhibitory activity (IC50: μM)

Compound: NC(=O)C[C@H](N)C(=O)N[C@@H](Cc1c[nH]c2ccccc12)C(=O)O [Asparagine-tryptophan, asparagine-tryptophan] (H-Asn-Trp-OH; N-terminus and C-terminus assumed)
The contribution rate in KATSUOBUSHI peptide: 0.099%

Compound: NC(=O)CC[C@H](N)C(=O)N[C@@H](Cc1c[nH]c2ccccc12)C(=O)O [Glutamine-tryptophan, glutamine-tryptophan] (H-Gln-Trp-OH; N-terminus and C-terminus assumed)
The contribution rate in KATSUOBUSHI peptide: 0.048%
IC50 [1]: 32.6 µM

Compound: NCC(=O)N[C@@H](Cc1c[nH]c2ccccc12)C(=O)O [Glycine-tryptophan, glycine-tryptophan] (H-Gly-Trp-OH)
The contribution rate in KATSUOBUSHI peptide: 0.366%
IC50 [1]: 30 µM

Compound: CSCC[C@H](N)C(=O)N[C@@H](Cc1c[nH]c2ccccc12)C(=O)O [Methionine-tryptophan, methionine-tryptophan] (H-Met-Trp-OH; N-terminus and C-terminus assumed)
ACE inhibitory activity value, comparison in words: much higher value than the other dipeptides
The contribution rate in KATSUOBUSHI peptide: 0.343%
IC50 [3]: 3.8 µM

Compound: N[C@@H](CO)C(=O)N[C@@H](Cc1c[nH]c2ccccc12)C(=O)O [Serine-tryptophan, serine-tryptophan] (H-Ser-Trp-OH; N-terminus and C-terminus assumed)
The contribution rate in KATSUOBUSHI peptide: 0.099%
IC50 [1]: 22.1 µM

Compound: NC(=O)C[C@H](NC(=O)[C@@H](N)Cc1c[nH]c2ccccc12)C(=O)O [Tryptophan-asparagine, tryptophan-asparagine] (H-Trp-Asn-OH; N-terminus and C-terminus assumed)
IC50 [4]: 580 µM

Compound: CC(C)C[C@H](NC(=O)[C@@H](N)Cc1c[nH]c2ccccc12)C(=O)O [Tryptophan-leucine, tryptophan-leucine] (H-Trp-Leu-OH; N-terminus and C-terminus assumed)
IC50 [4]: 25.1 µM

Compound: CSCC[C@H](NC(=O)[C@@H](N)Cc1c[nH]c2ccccc12)C(=O)O [Tryptophan-methionine, tryptophan-methionine] (H-Trp-Met-OH)
The contribution rate in KATSUOBUSHI peptide: 0.054%
IC50 [3]: 36.5 µM

Compound: N[C@@H](Cc1c[nH]c2ccccc12)C(=O)N[C@@H](Cc1ccc(O)cc1)C(=O)O [Tryptophan-tyrosine, tryptophan-tyrosine] (H-Trp-Tyr-OH; N-terminus and C-terminus assumed)
The contribution rate in KATSUOBUSHI peptide: 0.021%
IC50 [3]: 57 µM

Compound: CC(C)[C@H](N)C(=O)N1CCC[C@H]1C(=O)O [Valine-proline, reference compound] (H-Val-Pro-OH)
IC50 [2]: 420 µM

Compound: CC(C)[C@H](N)C(=O)N[C@@H](Cc1c[nH]c2ccccc12)C(=O)O [Valine-tryptophan, valine-tryptophan] (H-Val-Trp-OH)
contribution rate in KATSUOBUSHI peptide, in words: high
ACE inhibitory activity value, comparison in words: much higher value than the other dipeptides
The contribution rate in KATSUOBUSHI peptide: 4.031%

The next lines start with results.

contribution rate in KATSUOBUSHI peptide, in words: high
The contribution rate in KATSUOBUSHI peptide: 0.672%
IC50 [1]: 10 µM
Compound: C[C@H](N)C(=O)N[C@@H](Cc1c[nH]c2ccccc12)C(=O)O [Alanine-tryptophan, alanine-tryptophan] (H-Ala-Trp-OH; N-terminus and C-terminus assumed)

IC50 [2]: 930 µM
Compound: CC[C@H](C)[C@H](N)C(=O)N[C@@H](Cc1ccccc1)C(=O)O [Isoleucine-phenylalanine, reference compound] (H-Ile-Phe-OH; N-terminus and C-terminus assumed)

contribution rate in KATSUOBUSHI peptide, in words: high
The contribution rate in KATSUOBUSHI peptide: 2.040%
IC50 [3]: 2 µM
Compound: CC[C@H](C)[C@H](N)C(=O)N[C@@H](Cc1c[nH]c2ccccc12)C(=O)O [Isoleucine-tryptophan, isoleucine-tryptophan]
ACE inhibitory activity value, comparison in words: much higher value than the other dipeptides

IC50 [4]: 23 µM
Compound: CC(C)C[C@H](N)C(=O)N[C@@H](Cc1c[nH]c2ccccc12)C(=O)O [Leucine-tryptophan, leucine-tryptophan]

IC50 [4]: 33.1 µM
Compound: CC[C@H](C)[C@H](NC(=O)[C@@H](N)Cc1c[nH]c2ccccc12)C(=O)O [Tryptophan-isoleucine, tryptophan-isoleucine] (H-Trp-Ile-OH; N-terminus and C-terminus assumed)

IC50 [4]: 11 µM
Compound: CC(C)[C@H](N)C(=O)N[C@@H](Cc1ccc(O)cc1)C(=O)O [Valine-tyrosine, valine-tyrosine] (H-Val-Tyr-OH; N-terminus and C-terminus assumed)
